Assay results: US11286263B2, “Macrocyclic fluorine substituted indole derivatives” (The Broad Institute, Inc., priority 2017, dated 2022)
Values joined by “and” are separate entries in the source; they are usually repeats but may differ in a detail not shown here. Equal values may be shown once. Where a name gives a salt, the structure may show the parent alone. Read-outs that look alike come from different tables or passages of the source.

Legend:
[1] = target: MCL-1 (Homo sapiens (Human), UniProt Q07820, K194A/K197A/R201A); experiment: Protein-protein interaction assay MCL-1/Noxa BH3 peptide (MCL-1 assay), TR-FRET; format: binding; conditions: MCL-1/Noxa BH3 peptide TR-FRET; median
How it was run: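 TR-FRET competition between MBP-MCL-1 (173-321, 1 nM) and biotin-Noxa BH3 peptide (1 nM) with anti-MBP-Eu/streptavidin-XL665; 11 compound levels 0.1 nM–20 μM, 10 min preincubation. Incubated 1 h at 22 °C then overnight at 4 °C, pH 7 Tris buffer. 665/620 ratio normalized to DMSO and no-MCL-1; 4-parameter IC50.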

[2] = tested on: SUDHL10; experiment: Induction of caspase-3/7 activity, SUDHL10 (Assay 4); format: cell-based; conditions: SUDHL10 cells
How it was run: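 DLBCL lines treated with compounds for 3 h at 37° C.; caspase-3/7 activity read by Caspase-Glo 3/7 luminescence. Medium-only background subtracted; EC50 fitted with bottom fixed at 1 and top set to reference compound's maximal induction.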

[3] = tested on: AMO-1; experiment: Antiproliferation assay AMO-1 (Assay 7); format: cell-based; conditions: AMO-1 cells, CellTiter-Glo, single determinations, read-out: IC50 Antiproli AMO-1
How it was run: (§1)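 CellTiter-Glo luminescence readout; 72 h compound exposure, 37 °C, humidified; rim wells excluded; time-zero reference plate plated in parallel and read identically.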

[4] = tested on: A2780; experiment: Antiproliferation assay A2780 (Assay 7); format: cell-based; conditions: A2780 cells, CellTiter-Glo, single determinations, read-out: IC50 Antiproli A2780
How it was run: as §1

[5] = tested on: SUDHL10; experiment: Induction of cytotoxicity, SUDHL10 (Assay 6); conditions: read-out: IC50 Cytotox SUDHL10 [M] (median), SUDHL10 cells, 5 h, CellTiter-Glo
[6] = Homo sapiens, SU-DHL10, 3 h, Caspase-Glo 3/7, median

Chain of MCL-1 (Q07820 whole entry K194A/K197A/R201A, looked up): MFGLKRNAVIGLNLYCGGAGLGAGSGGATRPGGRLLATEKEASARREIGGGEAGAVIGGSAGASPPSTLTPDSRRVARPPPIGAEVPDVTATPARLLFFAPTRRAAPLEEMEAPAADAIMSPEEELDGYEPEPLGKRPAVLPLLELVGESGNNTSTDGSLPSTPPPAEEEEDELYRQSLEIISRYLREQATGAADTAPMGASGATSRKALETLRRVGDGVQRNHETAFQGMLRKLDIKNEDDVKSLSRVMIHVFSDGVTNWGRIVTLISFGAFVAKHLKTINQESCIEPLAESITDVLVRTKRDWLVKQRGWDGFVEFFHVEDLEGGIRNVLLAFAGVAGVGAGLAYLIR

| IC50 [1] [µM] | EC50 [2, 6] [µM] | IC50 ([4]; Homo sapiens, A2780, 72 h) [µM] | Compound | IC50 ([3]; Homo sapiens, AMO1, 72 h) [µM] | IC50 ([5]; Homo sapiens, SU-DHL10, 5 h) [M] | also measured |
| --- | --- | --- | --- | --- | --- | --- |
| 0.0012 | 1.3 | 13 | Cc1c2c(nn1C)COCCCCn1c(C(=O)O)c(CCCOc3cccc4ccccc34)c3ccc(F)c-2c31 (racemic) [Example 2, (rac)-4-fluoro-2,3-dimethyl-7-[3-(naphthalen-1-yloxy)propyl]-2,10,11,12,13,15-hexahydro-pyrazolo[4′,3′:9,10][1,6]oxazacycloundecino[8,7,6-hi]indole-8-carboxylic acid] | 2.46 | 1.6e-06 | IC50 ([3]; 72 h, listed as 02): 1.91 µM; IC50 ([4]; 72 h, listed as 02): 12.2 µM and 14.5 µM |
| 0.0013 |  |  | (rac)-1-(3-((2,3-dihydro-1H-inden-4-yl)oxy)propyl)-12-ethyl-13-fluoro-11-methyl-4,5,6,7,9,11-hexahydropyrazolo[4′,3′:9,10][1]oxa[6]azacycloundecino[8,7,6-hi]indole-2-carboxylic acid [Example 30] |  |  | EC50 ([2]; 3 h, Caspase-Glo 3/7, median): 1.7 µM; IC50 ([3]; 72 h): 1.69 µM; IC50 ([4]; 72 h): 11.2 µM |
| 0.0015 | 3.8 | 16.5 | Cc1c2c(nn1C)COCCCCn1c(C(=O)O)c(CCCOc3cccc4c3CCC4)c3ccc(F)c-2c31 (racemic) [Example 19, (rac)-1-(3-((2,3-dihydro-1H-inden-4-yl)oxy)propyl)-13-fluoro-11,12-dimethyl-4,5,6,7,9,11-hexahydropyrazolo[4′,3′:9,10][1]oxa[6]azacycloundecino[8,7,6-hi]indole-2-carboxylic acid] | 2.62 | 2.1e-06 | IC50 ([3]; 72 h): 4.06 µM |
| 0.0011 | 7.8 | > 33 | Cc1nn(C)c2c1-c1c(F)ccc3c(CCCOc4cccc5ccccc45)c(C(=O)O)n(c13)CCCCOC2 (racemic) [Example 10, (rac)-13-fluoro-10,12-dimethyl-1-(3-(naphthalen-1-yloxy)propyl)-4,5,6,7,9,10-hexahydro-pyrazolo[4′,3′:9,10][1]oxa[6]azacycloundecino[8,7,6-hi]indole-2-carboxylic acid] |  | 3.6e-06 |  |
| 0.00098 |  |  | Cc1c2c(nn1C)COCCCCn1c(C(=O)O)c(CCCOc3cccc4cc(F)ccc34)c3ccc(F)c-2c31 (single isomer, unassigned; enantiomer 1) [Example 13, 4-fluoro-7-{3-[(6-fluoronaphthalen-1-yl)oxy]propyl}-2,3-dimethyl-2,10,11,12,13,15-hexahydro-pyrazolo[4′,3′:9,10][1,6]oxazacycloundecino[8,7,6-hi]indole-8-carboxylic acid-N-ethylethanamine salt (enantiomer 1)] |  |  | EC50 ([2]; 3 h, Caspase-Glo 3/7, median): 0.68 µM; IC50 ([3]; 72 h): 0.747 µM and 0.564 µM; IC50 ([4]; 72 h): 4.11 µM; IC50 [5]: 8e-07 M |
| 0.0013 | 1.3 |  | Cc1c2c(nn1C)COCCCCn1c(C(=O)O)c(CCCOc3cccc4ccccc34)c3ccc(F)c-2c31 (single isomer, unassigned; enantiomer 1) [Example 3, 4-fluoro-2,3-dimethyl-7-[3-(naphthalen-1-yloxy)propyl]-2,10,11,12,13,15-hexahydropyrazolo-[4′,3′:9,10][1,6]oxazacycloundecino[8,7,6-hi]indole-8-carboxylic acid-N-ethylethanamine salt (enantiomer 1)] | 2 | 1.1e-06 | IC50 ([4]; 72 h, listed as 03): 23.8 µM and 17.6 µM and 15.3 µM |
| 0.0021 | 12 | 29.5 | Cc1cc(OCCCc2c(C(=O)O)n3c4c(c(F)ccc24)-c2c(C)nn(C)c2COCCCC3)cc(C)c1Cl (racemic) [Example 36, (rac)-1-(3-(4-chloro-3,5-dimethylphenoxy)propyl)-13-fluoro-10,12-dimethyl-4,5,6,7,9,10-hexahydropyrazolo[4′,3′:9,10][1]oxa[6]azacycloundecino[8,7,6-hi]indole-2-carboxylic acid] |  | 9e-06 |  |
| 0.0011 | 2.6 | 15.2 | Cc1nn(C)c2c1-c1c(F)ccc3c(CCCOc4cccc5cc(F)ccc45)c(C(=O)O)n(c13)CCCCOC2 (racemic) [Example 32, (rac)-13-fluoro-1-(3-((6-fluoronaphthalen-1-yl)oxy)propyl)-10,12-dimethyl-4,5,6,7,9,10-hexahydropyrazolo[4′,3′:9,10][1]oxa[6]azacycloundecino[8,7,6-hi]indole-2-carboxylic acid] | 3.98 | 2e-06 | IC50 ([3]; 72 h): 4.27 µM |
| 0.0022 | 6.5 | 15.3 | CCc1nn(C)c2c1-c1c(F)ccc3c(CCCOc4cccc5ccccc45)c(C(=O)O)n(c13)C/C=C\COC2 (racemic) [Example 11, (rac)-(Z)-12-ethyl-13-fluoro-10-methyl-1-(3-(naphthalen-1-yloxy)propyl)-4,7,9,10-tetrahydro-pyrazolo[4′,3′:9,10][1]oxa[6]azacycloundecino[8,7,6-hi]indole-2-carboxylic acid] |  | 7.2e-06 | IC50 ([4]; 72 h): 23.5 µM |
| 0.00045 |  | 3.88 | CCc1c2c(nn1C)COCCCCn1c(C(=O)O)c(CCCOc3cccc4cc(F)ccc34)c3ccc(F)c-2c31 (single isomer, unassigned; enantiomer 1) [Example 22, 3-ethyl-4-fluoro-7-{3-[(6-fluoronaphthalen-1-yl)oxy]propyl}-2-methyl-2,10,11,12,13,15-hexahydropyrazolo[4′,3′:9,10][1,6]oxazacycloundecino[8,7,6-hi]indole-8-carboxylic acid-N-ethylethanamine salt (enantiomer 1)] |  |  | EC50 ([2]; 3 h, Caspase-Glo 3/7, median): 0.38 µM; IC50 [5]: 5.5e-07 M |
| 0.00097 |  |  | CCc1c2c(nn1C)COCCCCn1c(C(=O)O)c(CCCOc3cccc4ccccc34)c3ccc(F)c-2c31 (single isomer, unassigned; enantiomer 1) [Example 7, 3-ethyl-4-fluoro-2-methyl-7-{3-[(naphthalen-1-yl)oxy]propyl}-2,10,11,12,13,15-hexahydro-pyrazolo[4′,3′:9,10][1,6]oxazacycloundecino[8,7,6-hi]indole-8-carboxylic acid-N-ethylethanamine salt (enantiomer 1)] | 1.91 |  | EC50 ([2]; 3 h, Caspase-Glo 3/7, median): 1 µM; IC50 ([4]; 72 h, listed as 07): 8.84 µM and 13.2 µM; IC50 [5]: 1.3e-06 M |
| 0.0013 | 20 | 15 | Cc1nn(C)c2c1-c1c(F)ccc3c(CCCOc4cccc5c4CCC5)c(C(=O)O)n(c13)CCCCOC2 (racemic) [Example 35, (rac)-1-(3-((2,3-dihydro-1H-inden-4-yl)oxy)propyl)-13-fluoro-10,12-dimethyl-4,5,6,7,9,10-hexahydropyrazolo[4′,3′:9,10][1]oxa[6]azacycloundecino[8,7,6-hi]indole-2-carboxylic acid] |  | 1.5e-05 |  |
| 0.0023 | 3.5 | 25.4 | CCc1c2c(nn1C)COC/C=C\Cn1c(C(=O)O)c(CCCOc3cccc4ccccc34)c3ccc(F)c-2c31 (racemic) [Example 5, (rac)-(11Z)-3-ethyl-4-fluoro-2-methyl-7-[3-(naphthalen-1-yloxy)propyl]-2,10,13,15-tetrahydro-pyrazolo[4′,3′:9,10][1,6]oxazacycloundecino[8,7,6-hi]indole-8-carboxylic acid] |  | 3.2e-06 | IC50 ([4]; 72 h, listed as 05): 28.1 µM and 20.8 µM and 27.7 µM |
| 0.0024 | 18 | 23.1 | Cc1nn(C)c2c1-c1c(F)ccc3c(CCCOc4cccc5ccccc45)c(C(=O)O)n(c13)C/C=C\COC2 (racemic) [Example 9, (rac)-(Z)-13-fluoro-10,12-dimethyl-1-(3-(naphthalen-1-yloxy)propyl)-4,7,9,10-tetrahydro-pyrazolo[4′,3′:9,10][1]oxa[6]azacycloundecino[8,7,6-hi]indole-2-carboxylic acid] |  | 1.5e-05 | IC50 ([4]; 72 h, listed as 09): 20.7 µM |
| 0.0018 | 2.5 | > 33 | Cc1c2c(nn1C)COC/C=C\Cn1c(C(=O)O)c(CCCOc3cccc4ccccc34)c3ccc(F)c-2c31 (racemic) [Example 1, (rac)-(11Z)-4-fluoro-2,3-dimethyl-7-[3-(naphthalen-1-yloxy)propyl]-2,10,13,15-tetrahydro-pyrazolo[4′,3′:9,10][1,6]oxazacycloundecino[8,7,6-hi]indole-8-carboxylic acid] |  | 3.8e-06 | IC50 ([4]; 72 h, listed as 01): 21.1 µM |
